The results in this text go back to patent US8299021B2, “Macrocyclic inhibitors of hepatitis C virus replication” (InterMune, Inc., priority 2005, dated 2012).

Each structure is given as a SMILES string.

T1 sequence (P27958 1027-1657): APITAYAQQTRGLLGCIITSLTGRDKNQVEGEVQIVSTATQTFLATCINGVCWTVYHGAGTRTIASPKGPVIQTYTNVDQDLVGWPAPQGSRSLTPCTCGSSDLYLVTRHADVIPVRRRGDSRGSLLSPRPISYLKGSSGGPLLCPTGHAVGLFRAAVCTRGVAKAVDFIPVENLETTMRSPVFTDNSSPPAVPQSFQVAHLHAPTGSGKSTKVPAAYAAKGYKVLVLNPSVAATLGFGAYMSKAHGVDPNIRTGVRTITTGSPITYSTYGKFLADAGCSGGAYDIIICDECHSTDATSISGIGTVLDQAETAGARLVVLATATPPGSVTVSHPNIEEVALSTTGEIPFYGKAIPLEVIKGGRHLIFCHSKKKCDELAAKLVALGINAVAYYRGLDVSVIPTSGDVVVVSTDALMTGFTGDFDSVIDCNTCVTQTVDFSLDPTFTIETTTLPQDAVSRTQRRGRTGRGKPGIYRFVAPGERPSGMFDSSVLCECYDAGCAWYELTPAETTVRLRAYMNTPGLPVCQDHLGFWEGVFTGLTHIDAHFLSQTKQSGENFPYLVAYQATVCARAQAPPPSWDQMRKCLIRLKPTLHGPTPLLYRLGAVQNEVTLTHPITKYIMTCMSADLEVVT

One assay has as its target T1, NS3-NS4 protease (full-length NS3/NS4A-2) (Hepatitis C virus genotype 1a, UniProt P27958).
T1 construct: Recombinant E. coli or Baculovirus full-length NS3 was diluted to 3.33 μM with assay buffer; made in house; host or cells: E. coli or baculovirus (insect cells)
Briefly: NS3-NS4 protease assay / NS3 inhibition assay (RETS1 substrate, fluorescence kinetic read). It is filed as biochemical.
Details: not given
As for the experimental part: NS3 complex formation with NS4A-2.
The appropriate amount of NS4A-2 to 8.3 mM in assay buffer was added to equal the volume of NS3 in step 2.1.1 (conversion factor—3.8 mg/272 μL assay buffer). The material was transferred to an eppendorf tube and place in water bath in 4° C. refrigerator.
After equilibration to 4° C., equal volumes of NS3 and NS4A-2 solutions were combined in an eppendorf tube, mix gently with a manual pipettor, and incubate mixture for 15 minutes in the 4° C. water bath.
After 15 minutes at 4° C., the NS3/NS4A-2 eppendorf tube was removed and place it in a room temperature water bath for 10 minutes. NS3/NS4A-2 was alliquoted at appropriate volumes and store at −80° C. (E. coli NS3 run at 2 nM in assay, aliquot at 25 μL. BV NS3 run at 3 nM in assay, aliquot at 30 μL).
Sample compounds were dissolved to 10 mM in DMSO then diluted to 2.5 mM (1:4) in DMSO.
The E. coli. […] Using the manual multichannel pipettor, careful not to introduce bubbles into the plate, add 50 μL assay buffer to wells A01-H01 of a black Costar 96-well polypropylene storage plate.
Using the manual multichannel pipettor, careful not to introduce bubbles into the plate, add 50 μL of diluted NS3/NS4A-2 from step 2.2.6 to wells A02-H12 of plate in step 2.2.7. Using the manual multichannel pipettor, careful not to introduce bubbles into the plate, transfer 25 μL of the wells in drug dilution plate in step 2.2.5 to corresponding wells in assay plate in step 2.2.8. Change tips on multichannel pipettor for each row of compounds transferred. Using the manual multichannel pipettor, careful not to introduce bubbles into the plate, mix the wells from the assay plate in step 2.2.9 by aspirating and dispensing 35 μL of the 75 μL in each well five times. Change tips on multichannel pipettor for each row of wells mixed. Cover plate with a polystyrene plate lid and pre-incubate the plate from step 2.2.10 containing NS3 protease and sample compounds 10 minutes at room temperature. While plate from step 2.2.11 is pre-incubating, dilute RETS1 substrate in a 15 mL polypropylene centrifuge tube.
After the plate in step is done pre-incubating, and using the manual multichannel, add 25 μL of substrate to all wells on the plate. Quickly mix the plate as in step 2.2.10, mixing 65 μL of the 100 μL in the wells.
Read the plate in kinetic mode on the Molecular Devices SpectraMax
IC50s are determined using a four parameter curve fit equation, and converted to Ki's using the following Km's:
where Ki=IC50/(1+[S]/Km))
Regarding `O=C(N[C@H]1CCCCC/C=C\[C@@H]2C[C@@]2(C(=O)NS(=O)(=O)C2CC2)NC(=O)[C@@H]2C[C@@H](OC(=O)N3Cc4cccc(F)c4C3)CN2C1=O)C(O)C(F)(F)F` (single isomer, unassigned) [Compound 247], the half-maximal inhibitory concentration (IC50) is less than 100 nM.

Still in this assay, the particulars now being: Table 22; read-out: NS3-NS4 IC50.
For the compound `C[C@H](NC(=O)[C@@]12C[C@H]1/C=C\CCCCC[C@H](NC(=O)OC(C)(C)C)C(=O)N1CCC[C@H]1C(=O)N2)c1ccccc1` [Compound 2301], the IC50 was less than 10000 nM.

Consider `CC(C)(C)OC(=O)N[C@H]1CCCCC/C=C\[C@@H]2C[C@@]2(C(=O)NC2CCC2)NC(=O)[C@@H]2CCCN2C1=O` [Compound 2303], for which the half-inhibitory concentration (IC50) is less than 1000 nM.

For `CC(C)(C)OC(=O)N[C@H]1CCCCC/C=C\[C@@H]2C[C@@]2(C(=O)Nc2ccc(F)cc2)NC(=O)[C@@H]2CCCN2C1=O` [Compound 2304], the IC50 was less than 1000 nM.

Staying with this assay, now noted: read-out: NS3-NS4 IC50.
For the compound `CC(C)OC(=O)N[C@H]1CCCCC/C=C\[C@@H]2C[C@@]2(C(=O)NS(=O)(=O)Nc2ccc(Cl)cc2)NC(=O)[C@@H]2CCCN2C1=O` [Compound 418], the IC50 is more than 10000 nM.

On to `CCOC(=O)[C@@]12C[C@H]1/C=C\CCCCC[C@H](NC(=O)OC(C)(C)C)C(=O)N1Cc3ccc(Oc4cccc(Cl)c4)cc3CC1C(=O)N2` (stereo partly shown) [Compound 2006], for which the IC50 is less than 1000 nM.

Turning to `CC(C)(C)OC(=O)N[C@H]1CCCCC/C=C\[C@@H]2C[C@@]2(C(=O)NS(=O)(=O)c2ccccc2)NC(=O)[C@@H]2CCCN2C1=O` [Compound 2101], the 50% inhibitory concentration (IC50) is less than 10000 nM.

Take `CC(C)(C)OC(=O)N[C@H]1CCCCC/C=C\[C@@H]2C[C@@]2(C(=O)NS(=O)(=O)c2ccc([N+](=O)[O-])cc2)NC(=O)[C@@H]2CCCN2C1=O` [Compound 2102]: the IC50 was less than 10000 nM.

`CC(C)(C)OC(=O)N[C@H]1CCCCC/C=C\[C@@H]2C[C@@]2(C(=O)NS(C)(=O)=O)NC(=O)[C@@H]2CCCN2C1=O` [Compound 2103]: the concentration for half-maximal inhibition (IC50) was less than 1000 nM.

With `CC(C)S(=O)(=O)NC(=O)[C@@]12C[C@H]1/C=C\CCCCC[C@H](NC(=O)OC(C)(C)C)C(=O)N1CCC[C@H]1C(=O)N2` [Compound 2104], the 50% inhibitory concentration (IC50) is less than 10000 nM.

For the compound `CCCS(=O)(=O)NC(=O)[C@@]12C[C@H]1/C=C\CCCCC[C@H](NC(=O)OC(C)(C)C)C(=O)N1CCC[C@H]1C(=O)N2` [Compound 2105], the IC50 was less than 1000 nM.

As for `CCCCS(=O)(=O)NC(=O)[C@@]12C[C@H]1/C=C\CCCCC[C@H](NC(=O)OC(C)(C)C)C(=O)N1CCC[C@H]1C(=O)N2` [Compound 2106], the IC50 is less than 100 nM.

As for `CC(C)(C)OC(=O)NC1CCCCCC=CC2CC2(C(=O)NS(=O)(=O)C(F)(F)F)NC(=O)C2CCCN2C1=O` (stereo not shown) [Compound 2107], the IC50 was less than 1000 nM.

In the case of `CC(C)(C)OC(=O)NC1CCCCCC=CC2CC2(C(=O)NS(=O)(=O)c2cc(Cl)cc(Cl)c2)NC(=O)C2CCCN2C1=O` (stereo not shown) [Compound 2108], the IC50 is less than 10000 nM.

Regarding `CC(C)(C)OC(=O)NC1CCCCCC=CC2CC2(C(=O)NS(=O)(=O)c2ccccc2Cl)NC(=O)C2CCCN2C1=O` (stereo not shown) [Compound 2109], the IC50 was less than 10000 nM.

Take `CC(C)(C)OC(=O)N[C@H]1CCCCC/C=C\[C@@H]2C[C@@]2(C(=O)NS(=O)(=O)c2cnccc2Cl)NC(=O)[C@@H]2CCCN2C1=O` [Compound 2128]: the IC50 is less than 10000 nM.

As for `CC(C)(C)OC(=O)N[C@H]1CCCCC/C=C\[C@@H]2C[C@@]2(C(=O)NS(=O)(=O)c2ccc(Cl)cc2)NC(=O)[C@@H]2CCCN2C1=O` [Compound 2129], the IC50 is less than 10000 nM.

With `Cc1ccc(CC(=O)N[C@H]2CCCCC/C=C\[C@@H]3C[C@@]3(C(=O)NS(=O)(=O)C3CC3)NC(=O)C3CCCN3C2=O)cc1` (stereo partly shown) [Compound 2140], the IC50 is more than 10000 nM.

Take `CO[C@@H]1C[C@H]2C(=O)N[C@]3(C(=O)NS(=O)(=O)C4CC4)C[C@H]3/C=C\CCCCC[C@H](NC(=O)OC(C)(C)C)C(=O)N2C1` [Compound 2146, 1S,4R,6S,14S,18R)-tert-Butyl 4-cyclopropylsulfonylaminocarbonyl-2,15-dioxo-3,16-diaza-18-methoxy-tricyclo[14.3.0.0^4,6]nonadec-7-ene-14-yl carbamate]: the IC50 was more than 10000 nM.

`CC(C)(C)OC(=O)N[C@H]1CCCCC/C=C\[C@@H]2C[C@@]2(C(=O)NS(=O)(=O)c2cccc3ccccc23)NC(=O)[C@@H]2CCCN2C1=O` [Compound 2148]: the IC50 is less than 10000 nM.

With `CC(C)(C)OC(=O)N[C@H]1CCCCC/C=C\[C@@H]2C[C@@]2(C(=O)NS(=O)(=O)c2ccc(Cl)cc2Cl)NC(=O)[C@@H]2CCCN2C1=O` [Compound 2153], the IC50 was less than 10000 nM.

In the case of `CC(C)N(C(C)C)S(=O)(=O)NC(=O)[C@@]12C[C@H]1/C=C\CCCCC[C@H](NC(=O)OC(C)(C)C)C(=O)N1CCC[C@H]1C(=O)N2` [Compound 2209], the half-inhibitory concentration (IC50) was less than 1000 nM.

Consider `CC(C)(C)OC(=O)N[C@H]1CCCCC/C=C\[C@@H]2C[C@@]2(C(=O)NS(=O)(=O)NC2CCC2)NC(=O)[C@@H]2CCCN2C1=O` [Compound 2214], for which the IC50 is less than 1000 nM.

For `CC(C)(C)OC(=O)N[C@H]1CCCCC/C=C\[C@@H]2C[C@@]2(C(=O)NS(=O)(=O)NC2CCCC2)NC(=O)[C@@H]2CCCN2C1=O` [Compound 2215], the IC50 is less than 1000 nM.

Regarding `CCNS(=O)(=O)NC(=O)[C@@]12C[C@H]1/C=C\CCCCC[C@H](NC(=O)OC(C)(C)C)C(=O)N1CCC[C@H]1C(=O)N2` [Compound 2216], the half-inhibitory concentration (IC50) is less than 10000 nM.

As for `CCCNS(=O)(=O)NC(=O)[C@@]12C[C@H]1/C=C\CCCCC[C@H](NC(=O)OC(C)(C)C)C(=O)N1CCC[C@H]1C(=O)N2` [Compound 2217], the IC50 is less than 1000 nM.

With `CC(C)CNS(=O)(=O)NC(=O)[C@@]12C[C@H]1/C=C\CCCCC[C@H](NC(=O)OC(C)(C)C)C(=O)N1CCC[C@H]1C(=O)N2` [Compound 2218], the half-maximal inhibitory concentration (IC50) was less than 100 nM.

For the compound `CC(C)(C)OC(=O)N[C@H]1CCCCC/C=C\[C@@H]2C[C@@]2(C(=O)NS(=O)(=O)N2CCCCC2)NC(=O)[C@@H]2CCCN2C1=O` [Compound 2219], the 50% inhibitory concentration (IC50) is less than 10000 nM.

As to `CCC1CCCCN1S(=O)(=O)NC(=O)[C@@]12C[C@H]1/C=C\CCCCC[C@H](NC(=O)OC(C)(C)C)C(=O)N1CCC[C@H]1C(=O)N2` (stereo partly shown) [Compound 2220], the IC50 is less than 1000 nM.

With `COC(=O)C1CCCCN1S(=O)(=O)NC(=O)[C@@]12C[C@H]1/C=C\CCCCC[C@H](NC(=O)OC(C)(C)C)C(=O)N1CCC[C@H]1C(=O)N2` (stereo partly shown) [Compound 2221], the half-inhibitory concentration (IC50) is less than 1000 nM.

For `CC(C)(C)OC(=O)N[C@H]1CCCCC/C=C\[C@@H]2C[C@@]2(C(=O)NS(=O)(=O)NC2CC2c2ccccc2)NC(=O)[C@@H]2CCCN2C1=O` (stereo partly shown) [Compound 2224], the IC50 is less than 10000 nM.

Turning to `CC1CCCCN1S(=O)(=O)NC(=O)[C@@]12C[C@H]1/C=C\CCCCC[C@H](NC(=O)OC(C)(C)C)C(=O)N1CCC[C@H]1C(=O)N2` (stereo partly shown) [Compound 2225], the IC50 was less than 10000 nM.

As for `CC(C)(C)OC(=O)N[C@H]1CCCCC/C=C\[C@@H]2C[C@@]2(C(=O)NS(=O)(=O)Nc2ccc(Cl)c(Cl)c2)NC(=O)[C@@H]2CCCN2C1=O` [Compound 2234], the half-maximal inhibitory concentration (IC50) is less than 1000 nM.

Consider `CCc1ccc(NS(=O)(=O)NC(=O)[C@@]23C[C@H]2/C=C\CCCCC[C@H](NC(=O)OC(C)(C)C)C(=O)N2CCC[C@H]2C(=O)N3)cc1` [Compound 2242], for which the 50% inhibitory concentration (IC50) is less than 1000 nM.

For the compound `COc1ccc(NS(=O)(=O)NC(=O)[C@@]23C[C@H]2/C=C\CCCCC[C@H](NC(=O)OC(C)(C)C)C(=O)N2CCC[C@H]2C(=O)N3)cc1` [Compound 2244], the half-inhibitory concentration (IC50) is less than 100 nM.

In the case of `CC(C)(C)OC(=O)N[C@H]1CCCCC/C=C\[C@@H]2C[C@@]2(C(=O)NS(=O)(=O)NCC2CC2)NC(=O)[C@@H]2CCCN2C1=O` [Compound 2245], the half-maximal inhibitory concentration (IC50) was less than 100 nM.

With `CC(C)(C)OC(=O)N[C@H]1CCCCC/C=C\[C@@H]2C[C@@]2(C(=O)NS(=O)(=O)Nc2ccccc2)NC(=O)[C@@H]2CCCN2C1=O` [Compound 2246], the 50% inhibitory concentration (IC50) was less than 1000 nM.

Turning to `CC(C)(C)OC(=O)N[C@H]1CCCCC/C=C\[C@@H]2C[C@@]2(C(=O)NS(=O)(=O)Nc2ccc(Cl)cc2)NC(=O)[C@@H]2CCCN2C1=O` [Compound 2247], the IC50 was more than 10000 nM.

For the compound `CN(CCc1ccccc1)S(=O)(=O)NC(=O)[C@@]12C[C@H]1/C=C\CCCCC[C@H](NC(=O)OC(C)(C)C)C(=O)N1CCC[C@H]1C(=O)N2` [Compound 2248], the IC50 was less than 10000 nM.

With `CN(CC#N)S(=O)(=O)NC(=O)[C@@]12C[C@H]1/C=C\CCCCC[C@H](NC(=O)OC(C)(C)C)C(=O)N1CCC[C@H]1C(=O)N2` [Compound 2249], the concentration for half-maximal inhibition (IC50) was less than 1000 nM.
